The record followed here is ChEMBL document CHEMBL3526084, “Cytochrome P450 dysregulations in thioacetamide-induced liver cirrhosis in rats and the counteracting effects of hepatoprotective agents” (Drug Metab Dispos, 2012).

The source made the active and inactive calls. No cut-off for these calls is given here.

In series [1] the test system is Liver microsome. Description: Reversal of thioacetamide-induced CYP1A2 inactivation in rat liver microsomes at 0.2 to 5 mM in presence of NADPH. Type of series: functional. A general note: Liver microsomes are vesicles of endoplasmic reticulum, rich in cytochrome P450 enzymes.
Series [2] concerns Liver microsome. Put plainly: Reversal of thioacetamide-induced CYP2C6 inactivation in rat liver microsomes at 0.2 to 5 mM in presence of NADPH. In kind it is functional.
For series [3], the system named is Rattus norvegicus. Put plainly: Hepatoprotective activity in thioacetamide-induced Sprague-Dawley rat liver cirrhosis model assessed as downregulation of CYP1A2 protein level at 200 mg/kg administered intragastrically qd for 2 weeks by Western blotting analysis relative to control. In kind it is functional, organism-based. Also on record: dose 200 mg/kg.
The test system of series [4] is Liver microsome. Put plainly: Reversal of thioacetamide-induced CYP2E1 inactivation in rat liver microsomes at 2 to 50 uM in presence of NADPH. Type of series: functional.
In series [5] the test system is Liver microsome. Put plainly: Reversal of thioacetamide-induced CYP3A2 inactivation in rat liver microsomes at 0.2 to 5 mM in presence of NADPH. Type of series: functional.
Series [6] relates to Liver microsome. Put plainly: Reversal of thioacetamide-induced CYP3A2 inactivation in rat liver microsomes at 2 to 50 uM in presence of NADPH. In kind it is functional.
Series [7] deals with Liver microsome. Description: Reversal of thioacetamide-induced CYP1A2 inactivation in rat liver microsomes at 2 to 50 uM in presence of NADPH. In kind it is functional.
In series [8] the test system is Rattus norvegicus. Description: Hepatoprotective activity in thioacetamide-induced Sprague-Dawley rat liver cirrhosis model assessed as downregulation of CYP2C6 protein level at 200 mg/kg administered intragastrically qd for 2 weeks by Western blotting analysis relative to control. Type of series: functional, organism-based. Also on record: dose 200 mg/kg. Background: A western blot detects proteins with antibodies after separation by electrophoresis.

The test system of series [9] is Rattus norvegicus. Description: Downregulation of CYP1A2 in Sprague-Dawley rat liver at 200 mg/kg administered intragastrically qd for 2 weeks by Western blotting analysis. Conditions: in vivo, po, 336 h. Further details: dose 200 mg/kg, route intragastric. Type of series: ADME, organism-based.
The subject of series [10] is Rattus norvegicus. Put plainly: Upregulation of CYP3A2 in Sprague-Dawley rat liver at 200 mg/kg administered intragastrically qd for 2 weeks by Western blotting analysis. Type of series: ADME, organism-based. Conditions: in vivo, po, 336 h. Also on record: dose 200 mg/kg, route intragastric.
Series [11] concerns Rattus norvegicus. Description: Hepatoprotective activity in thioacetamide-induced Sprague-Dawley rat liver cirrhosis model assessed as reversal of thioacetamide-induced change in serum AST level at 200 mg/kg administered intragastrically qd for 2 weeks by […]. In kind it is functional, organism-based. Further details: dose 200 mg/kg.

Series [12] has as its system Rattus norvegicus. Description: Hepatoprotective activity in thioacetamide-induced Sprague-Dawley rat liver cirrhosis model assessed as downregulation of CYP2E1 protein level at 200 mg/kg administered intragastrically qd for 2 weeks by Western blotting analysis relative to control. Conditions: route intragastric. Type of series: functional.
The subject of series [13] is Rattus norvegicus. Put plainly: Hepatoprotective activity in thioacetamide-induced Sprague-Dawley rat liver cirrhosis model assessed as downregulation of CYP3A2 protein level at 200 mg/kg administered intragastrically qd for 2 weeks by Western blotting analysis relative to control. Type of series: functional. The note with it: route intragastric.
Series [14] deals with Liver microsome. Put plainly: Reversal of thioacetamide-induced CYP2E1 inactivation in rat liver microsomes at 0.2 to 5 mM in presence of NADPH. Type of series: functional.
The test system of series [15] is Rattus norvegicus. Description: Hepatoprotective activity in thioacetamide-induced Sprague-Dawley rat liver cirrhosis model assessed as reversal of thioacetamide-induced change in serum ALT level at 200 mg/kg administered intragastrically qd for 2 weeks by […]. In kind it is functional, organism-based. Also on record: dose 200 mg/kg.

Series [16] relates to Rattus norvegicus. Description: Upregulation of CYP2C6 in Sprague-Dawley rat liver at 200 mg/kg administered intragastrically qd for 2 weeks by Western blotting analysis. In kind it is ADME, organism-based. The note with it: in vivo, po, 336 h. Also on record: dose 200 mg/kg, route intragastric.
Series [17] has as its system Rattus norvegicus. Put plainly: Hepatoprotective activity in thioacetamide-induced Sprague-Dawley rat liver cirrhosis model assessed as reversal of thioacetamide-induced change in serum TBIL level at 200 mg/kg administered intragastrically qd for 2 weeks by […]. Type of series: functional, organism-based. Further details: dose 200 mg/kg.

Series [18] has as its system Rattus norvegicus. Description: Upregulation of CYP2E1 in Sprague-Dawley rat liver at 200 mg/kg administered intragastrically qd for 2 weeks by Western blotting analysis. The note with it: in vivo, po, 336 h. Also on record: dose 200 mg/kg, route intragastric. Type of series: ADME, organism-based.
In series [19] the test system is Liver microsome. Put plainly: Reversal of thioacetamide-induced CYP2C6 inactivation in rat liver microsomes at 2 to 50 uM in presence of NADPH. Type of series: functional.

As for `COC(=O)c1cc(OC)c2c(c1-c1c(C(=O)OC)cc(OC)c3c1OCO3)OCO2` [BIFENDATE], the result with Liver microsome [1], in the series with Liver microsome [2], in the series on Liver microsome [4], in the series with Liver microsome [5], with Liver microsome [6] and in the series on Liver microsome [7] was inactive. Besides, the outcome in the series on Liver microsome [14] and in the series on Liver microsome [19] was inactive. Moreover, the outcome in the series on Rattus norvegicus [3], in the series on Rattus norvegicus [8], in the series with Rattus norvegicus [11], with Rattus norvegicus [15] and in the series with Rattus norvegicus [17] was Active. For the same compound, the result with Rattus norvegicus [9], in the series on Rattus norvegicus [10], in the series with Rattus norvegicus [16] and in the series on Rattus norvegicus [18] was Active. Further, the “fold change (FC)” value came out at 2.26 in the series with Rattus norvegicus [12] and 1.56 in the series on Rattus norvegicus [13].
